{"source": "paper PMC11775185", "about": "“Structure and function of a near fully-activated intermediate GPCR-Gαβγ complex” (Nature Communications, 2025)", "test_in_all_cases": "GTPase-Glo luminescence, Lineweaver-Burk", "key": {"[1]": {"tested_on": "T1, Gαsβγ (A2AR-Gαsβγ complex)", "T1 construct": "gene GNAS; cited protocols may use bovine/rat subunits), with purified A2AR_316 V229C in LMNG/CHS; Adenosine receptor A2a", "assay_type": "biochemical, Homo sapiens", "conditions": "R291A receptor (S4), with cognate GAP, pH […], room temperature", "excerpt": "GTPase-Glo luminescence, Lineweaver-Burk on WT*-mediated Gαsβγ (A2AR-Gαsβγ complex) | we measured the initial rates and Michaelis constants of GTP hydrolysis"}, "Gαsβγ alone": {"tested_on": "T2, Gαsβγ alone", "T2 construct": "gene GNAS; full-length Gαsβγ heterotrimer without receptor", "assay_type": "biochemical", "conditions": "[…] Gαsβγ without receptor, with cognate GAP, pH […], room temperature", "excerpt": "GTPase-Glo luminescence, Lineweaver-Burk on Gαsβγ alone | Km values for S4 mediated Gαsβγ, in reference to Gαsβγ alone (negative control)"}, "[2]": {"tested_on": "T3, WT*-mediated Gαsβγ (A2AR-Gαsβγ complex)", "T3 construct": "gene GNAS; cited protocols may use bovine/rat subunits), with purified A2AR_316 V229C in LMNG/CHS; Adenosine receptor A2a", "assay_type": "biochemical, Homo sapiens", "conditions": "agonist-activated WT* receptor (S5), with cognate GAP, pH […], room temperature", "excerpt": "GTPase-Glo luminescence, Lineweaver-Burk on WT*-mediated Gαsβγ (A2AR-Gαsβγ complex) | and the S5 mediated Gαsβγ (positive control)"}}}
{"smiles": "Nc1nc2c(ncn2[C@@H]2O[C@H](COP(=O)(O)OP(=O)(O)OP(=O)(O)O)[C@@H](O)[C@H]2O)c(=O)[nH]1", "note": "[GTP]", "values": [{"measurement": "Km", "setting": "[1]", "value": "18 ± 1.87", "unit": "µM"}, {"measurement": "Km", "setting": "Gαsβγ alone", "value": "8.3 ± 0.61", "unit": "µM"}, {"measurement": "Km", "setting": "[2]", "value": "32.1 ± 1", "unit": "µM"}]}
